System: OPG (osteoprotegerin)
Experiment: OPG (osteoprotegerin) expression in MG-63 cells, OPG ELISA of supernatant
Type: cell-based, human
Conditions: positive control, 20 mM
Description: The following three types of cells were used to investigate the effect of the herbal mixture extract or each independent herbal extract of the present invention on the proliferation of osteoblasts. A human osteosarcoma derived cell line MG-63 (ATCC No, CRL-1427) and a mouse muscle derived cell line C2C12 (ATCC No. CRL-1772) were distributed from American Type Culture Collection (ATCC, USA). The cells were cultured in DMEM (Gibco, BRL, USA) supplemented with 10% FBS (fetal bovine serum) in a 37° C. 5% CO2 incubator with 100% humidity.
MG-63 cell culture medium having approximately at the density of 10^6 cells/20 ml was removed from 100 mm cell culture dish. The dish was washed with 5 ml of DPBS (Dulbeco's modified phosphate buffered saline). The buffer was removed and 0.5 ml of trypsin-EDTA was spread on the culture dish, which stood in a CO2 incubator for one minute to take the cells off. The cells were put in 5 ml of DMEM supplemented with 10% FBS and mixed well. […] The numbers of cells were counted by haemacytometer and then distributed into a96-well plate at the concentration of 10^4 cells/well. […]
To increase reliability of the test results, positive control was treated with 20 mM CaCl2 to induce 2˜5 fold higher expression of OPG than in negative control. […] OPG ELISA kit (OCT) was used and optical density was measured at 450 nm. […]

[Ca+2].[Cl-].[Cl-] [CaCl2]
expression of OPG versus negative control: 2˜5 fold

— patent publication US7794760B2, “Herbal mixture extract of Pleurotus eryngii, Acanthopanacis Cortex and Notoginseng Radix and a composition comprising the same for prevention and treatment of periodontitis” (Oscotec Inc., priority 2005, dated 2010)
